US12630498B2 (Genzyme Corporation, priority 2019, dated 2026)

How the values were obtained:
[1] = molecular target: T1, human Cystic Fibrosis Transmembrane Conductance Regulator (CFTR) harboring the ΔF508 mutation (Homo sapiens, UniProt P13569, DEL508-508); assay: H441 cell ΔF508-CFTR-HRP cell surface assay (Emax and EC50); assay type: cell-based; conditions: for Emax: NCI-H441, NA = Not active
T1 construct: expressed in transfected cells; host or cells: H441 carcinoma line (G418-selected)
Summary of the method: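 H441 and 41o- bronchial epithelial cells expressing ΔF508-CFTR with an extracellular-loop-4 HRP tag were treated with a 15-point compound series (24.5–0.001 μM) for two nights, H441 at 27° C, 41o- at 37° C with 0.0005 mg/ml doxycycline. Surface HRP luminescence read; % of maximum VX809 signal and EC50 derived.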

[2] = molecular target: T2, CFTR-mediated transepithelial chloride transport in primary human bronchial epithelial cells from a ΔF508 homozygous CF donor (Homo sapiens, UniProt P13569, DEL508-508); assay: TECC24 recording of CFTR-mediated transepithelial chloride transport in CF-HBE cells (AUC fold over DMSO); assay type: cell-based; conditions: test agent 10 μM, 48 hours incubation, AUC of forskolin-stimulated IEQ relative to DMSO
T2 construct: Primary human bronchial epithelial cells from a ΔF508 homozygous CF donor; host or cells: primary CF-HBE cells, ΔF508 homozygous donor
T2 sequence (P13569 with tags, fused parts or gaps DEL508-508): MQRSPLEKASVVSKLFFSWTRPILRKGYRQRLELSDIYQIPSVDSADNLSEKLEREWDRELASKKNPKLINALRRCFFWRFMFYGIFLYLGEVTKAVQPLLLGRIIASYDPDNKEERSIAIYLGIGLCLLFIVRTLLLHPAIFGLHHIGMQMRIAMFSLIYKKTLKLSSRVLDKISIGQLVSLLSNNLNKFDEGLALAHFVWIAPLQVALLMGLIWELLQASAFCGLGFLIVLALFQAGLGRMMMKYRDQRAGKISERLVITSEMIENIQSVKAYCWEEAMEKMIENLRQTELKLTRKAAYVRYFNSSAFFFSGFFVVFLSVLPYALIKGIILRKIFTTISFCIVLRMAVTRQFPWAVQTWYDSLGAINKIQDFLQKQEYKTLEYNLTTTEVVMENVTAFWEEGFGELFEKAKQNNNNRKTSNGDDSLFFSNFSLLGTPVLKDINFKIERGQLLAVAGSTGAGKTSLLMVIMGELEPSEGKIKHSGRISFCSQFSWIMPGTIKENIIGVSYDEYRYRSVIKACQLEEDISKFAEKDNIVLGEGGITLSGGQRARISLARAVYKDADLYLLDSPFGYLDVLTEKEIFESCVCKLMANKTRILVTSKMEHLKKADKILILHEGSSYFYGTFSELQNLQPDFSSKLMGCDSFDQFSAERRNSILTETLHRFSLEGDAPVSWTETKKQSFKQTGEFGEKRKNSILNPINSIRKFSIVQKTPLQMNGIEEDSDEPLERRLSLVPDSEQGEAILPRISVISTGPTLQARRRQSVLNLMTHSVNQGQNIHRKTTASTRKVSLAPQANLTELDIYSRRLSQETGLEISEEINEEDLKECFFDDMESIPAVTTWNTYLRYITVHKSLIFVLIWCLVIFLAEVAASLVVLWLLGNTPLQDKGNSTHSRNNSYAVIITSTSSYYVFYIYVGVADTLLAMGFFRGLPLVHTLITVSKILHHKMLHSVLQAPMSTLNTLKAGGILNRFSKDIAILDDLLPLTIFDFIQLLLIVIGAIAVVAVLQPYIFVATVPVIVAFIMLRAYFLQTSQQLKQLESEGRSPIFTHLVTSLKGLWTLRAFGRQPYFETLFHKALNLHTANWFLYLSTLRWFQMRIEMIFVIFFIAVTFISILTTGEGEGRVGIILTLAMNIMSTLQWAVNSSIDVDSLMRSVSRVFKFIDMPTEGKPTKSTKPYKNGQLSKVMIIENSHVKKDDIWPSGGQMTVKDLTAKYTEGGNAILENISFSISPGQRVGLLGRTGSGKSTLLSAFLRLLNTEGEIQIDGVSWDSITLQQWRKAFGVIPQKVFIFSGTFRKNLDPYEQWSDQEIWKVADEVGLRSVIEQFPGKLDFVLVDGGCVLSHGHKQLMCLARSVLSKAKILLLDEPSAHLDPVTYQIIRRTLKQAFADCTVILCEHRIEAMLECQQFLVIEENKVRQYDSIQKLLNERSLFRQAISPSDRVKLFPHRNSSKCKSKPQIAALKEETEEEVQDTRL
Summary of the method: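 Equivalent Cl⁻ current was derived from transepithelial voltage and resistance, and its AUC from forskolin (10 μM) to CFTRinh-172 (20 μM) was divided by the DMSO AUC. Benzamil 10 μM blocked ENaC. Cells were ΔF508-homozygous primary bronchial epithelia pretreated 48 h at 36.5 °C in IL-13 medium.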

T1 sequence (P13569 with tags, fused parts or gaps DEL508-508): as above

| Compound | EC50 [1] [nM] | Emax [1] [%] | TECC24 AUC fold over DMSO @10 μM [2] |
| --- | --- | --- | --- |
| CC(C)(C)[C@H](NC(=O)c1ccc2ccccc2c1OCc1ccc(C#N)cc1)C(=O)O [Example 31, (S)-2-(1-((4-cyanobenzyl)oxy)-2-naphthamido)-3,3-dimethylbutanoic Acid] | 8000 | 77.1 | C (“C” refers to AUC @10 uM <4) |
| CC(C)(C)C[C@H](NC(=O)c1ccc2ccccc2c1OCc1ccc(SC(F)(F)F)cc1)C(=O)O [Example 115, (S)-4,4-dimethyl-2-(1-((4-((trifluoromethyl)thio)benzyl)oxy)-2-naphthamido)pentanoic Acid] | 1100 | 84 | C (“C” refers to AUC @10 uM <4) |
| CC(C)(C)[C@@H](NC(=O)c1ccc2ccc(C(F)F)cc2c1OCc1ccc(C(F)(F)F)cc1)C(=O)O [Example 265, (2R)-2-[[7-(difluoromethyl)-1-[[4-(trifluoromethyl)phenyl]methoxy]naphthalene-2-carbonyl]amino]-3,3-dimethyl-butanoic Acid] | 600 | 96.2 | C (“C” refers to AUC @10 uM <4) |
| CC(C)(C)C[C@H](NC(=O)c1ccc2ccccc2c1OCc1ccc(C(F)(F)F)cc1)C(=O)O [Example 141, (S)-4,4-dimethyl-2-(1-((4-(trifluoromethyl)benzyl)oxy)-2-naphthamido)pentanoic Acid] | 2300 | 147 | A (“A” refers to AUC @10 uM >6) |
| O=C(N[C@H](C(=O)O)C12CC(C(F)(F)F)(C1)C2)c1ccc2ccccc2c1OCc1ccc(SC(F)(F)F)cc1 [Example 17, (S)-2-(3-(trifluoromethyl)bicyclo[1.1.1]pentan-1-yl)-2-(1-((4-((trifluoromethyl)thio)benzyl)oxy)-2-naphthamido)acetic Acid] | 700 | 63.9 | C (“C” refers to AUC @10 uM <4) |
| CCCC(C)(C)[C@H](NC(=O)c1ccc2ccc(Cl)cc2c1OCc1ccc(C(F)(F)F)cc1)C(=O)O [Example 306, (S)-2-(7-chloro-1-((4-(trifluoromethyl)benzyl)oxy)-2-naphthamido)-3,3-dimethylhexanoic Acid] | 100 | 417 | A (“A” refers to AUC @10 uM >6) |
| CCC(C)(C)[C@H](NC(=O)c1ccc2ccc(C)cc2c1OCc1ccc(C(F)(F)F)cc1)C(=O)O [Example 288, (S)-3,3-dimethyl-2-(7-methyl-1-((4-(trifluoromethyl)benzyl)oxy)-2-naphthamido)pentanoic Acid] | 100 | 404 | A (“A” refers to AUC @10 uM >6) |

The next lines start with the values.

| EC50 [1] [nM] | Emax [1] [%] | TECC24 AUC fold over DMSO @10 μM [2] | Compound |
| --- | --- | --- | --- |
| 500 | 62.7 | C (“C” refers to AUC @10 uM <4) | CC(C)(SC1CCCC1)[C@H](NC(=O)c1ccc2cc(F)ccc2c1OCc1ccc(SC(F)(F)F)cc1)C(=O)O [Example 172] |
| – | 264 | A (“A” refers to AUC @10 uM >6) | CCC1([C@H](NC(=O)c2ccc3ccc(Cl)cc3c2OCc2ccc(C(F)(F)F)cc2)C(=O)O)CCCC1 [Example 258] |
| 16000 | 29.3 | C (“C” refers to AUC @10 uM <4) | O=C(N[C@@H](Cc1ccccc1)C(=O)O)c1ccc2ccccc2c1OCc1cccc(C(F)(F)F)c1 [Example 95, (1-((3-(trifluoromethyl)benzyl)oxy)-2-naphthoyl)-L-phenylalanine] |
| 1300 | 160 | C (“C” refers to AUC @10 uM <4) | C#CC(C)(C)C(NC(=O)c1ccc2ccccc2c1OCc1ccc(SC(F)(F)F)cc1)C(=O)O (centres unmarked) [Example 227, 3,3-dimethyl-2-[[1-[[4-(trifluoromethylsulfanyl)phenyl]methoxy]naphthalene-2-carbonyl]amino]pent-4-ynoic Acid] |
